Experiments:
Type in all cases: in vivo
Parameters in all cases: key: 0 is no effect; 10 is complete control
[1] = tested on: smallflower flatsedge (Cyperus difformis); assay: Test B flood test
Method in brief: (§1)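 Each value is a visual injury score relative to controls, with 10 meaning complete control and 0 no effect. Evaluation took place twelve to sixteen days after the 2-leaf-stage plants were treated and kept in the greenhouse.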

[2] = tested on: bamyardgrass (Echinochloa crus-galli); assay: Test B flood test
Method in brief: as §1

[3] = tested on: duck salad (Heteranthera limosa); assay: Test B flood test
Method in brief: as §1

rice (Oryza sativa) = assay: Test B flood test
Method in brief: as §1

corn (Zea mays) = assay: Test B pre-/postemergence
Method in brief: (§2)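 Response scores run from 0, meaning no effect, to 10, meaning complete control, assigned by eye relative to controls twelve to sixteen days after spraying. Treatment was both preemergence on planted seed and postemergence on plants at the 1- to 4-leaf stage.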

[4] = tested on: sugar beet (Beta vulgaris); assay: Test B pre-/postemergence
Method in brief: as §2

[5] = tested on: crabgrass (Digitaria sanguinalis); assay: Test B pre-/postemergence
Method in brief: as §2

[6] = tested on: wheat (Triticum aestivum); assay: Test B pre-/postemergence
Method in brief: as §2

[7] = tested on: cocklebur (Xanthium strumarium); assay: Test B pre-/postemergence
Method in brief: as §2

[8] = tested on: purple nutsedge (Cyperus rotundus); assay: Test B pre-/postemergence
Method in brief: as §2

[9] = tested on: velvetleaf (Abutilon theophrasti); assay: Test B pre-/postemergence
Method in brief: as §2

soybean (Glycine max) = assay: Test B pre-/postemergence
Method in brief: as §2

[10] = tested on: blackgrass (Alopecurus myosuroides); assay: Test B pre-/postemergence
Method in brief: as §2

[11] = tested on: pigweed (Amaranthus retroflexus); assay: Test B pre-/postemergence
Method in brief: as §2

rape (Brassica napus) = assay: Test B pre-/postemergence
Method in brief: as §2

[12] = Rate 62 g/ha, Postemergence (flood test)
[13] = Rate 125 g/ha, Postemergence, flood test
[14] = Rate 250 g/ha, Postemergence (flood test species)
[15] = Rate 500 g/ha, Postemergence (flood test species)

Cc1cnc(-c2ccc(C(F)(F)F)cc2)nc1Cn1cnc(C(F)(F)F)c1 [Compound 10]
8: Plant response rating, Sugarbeets ([4]; Rate 62 g/ha, Postemergence) | Plant response rating, Sugarbeets ([4]; Rate 125 g/ha, Postemergence) | Plant response rating, Cocklebur ([7]; Rate 125 g/ha, Postemergence) | Plant response rating, Velvetleaf ([9]; Rate 250 g/ha, Postemergence) | Plant response rating, Velvetleaf ([9]; Rate 250 g/ha, Preemergence) | Plant response rating, Velvetleaf ([9]; Rate 500 g/ha, Preemergence) | Plant response rating, Soybean (soybean (Glycine max); Rate 250 g/ha, Postemergence) | Plant response rating, Soybean (soybean (Glycine max); Rate 500 g/ha, Postemergence) | Plant response rating, Rape (rape (Brassica napus); Rate 62 g/ha, Postemergence)
7: Crabgrass plant response rating ([5]; Rate 125 g/ha, Preemergence) | Plant response rating, Velvetleaf ([9]; Rate 125 g/ha, Postemergence) | Velvetleaf plant response rating ([9]; Rate 125 g/ha, Preemergence) | Plant response rating, Redroot pigweed ([11]; Rate 250 g/ha, Preemergence) | Plant response rating, Redroot pigweed ([11]; Rate 500 g/ha, Preemergence) | Plant response rating, Rape (rape (Brassica napus); Rate 500 g/ha, Preemergence)
9: Plant response rating, S. Flatsedge [1, 13] | Plant response rating, S. Flatsedge [1, 14] | Plant response rating, S. Flatsedge [1, 15] | Plant response rating, Sugarbeets ([4]; Rate 250 g/ha, Postemergence) | Plant response rating, Sugarbeets ([4]; Rate 500 g/ha, Postemergence) | Plant response rating, Crabgrass ([5]; Rate 250 g/ha, Preemergence) | Plant response rating, Crabgrass ([5]; Rate 500 g/ha, Preemergence) | Plant response rating, Cocklebur ([7]; Rate 250 g/ha, Postemergence) | Plant response rating, Cocklebur ([7]; Rate 500 g/ha, Postemergence) | Plant response rating, Velvetleaf ([9]; Rate 500 g/ha, Postemergence) | Plant response rating, Redroot pigweed ([11]; Rate 62 g/ha, Postemergence) | Plant response rating, Redroot pigweed ([11]; Rate 125 g/ha, Postemergence) | Plant response rating, Redroot pigweed ([11]; Rate 250 g/ha, Postemergence) | Plant response rating, Redroot pigweed ([11]; Rate 500 g/ha, Postemergence) | Plant response rating, Rape (rape (Brassica napus); Rate 125 g/ha, Postemergence) | Plant response rating, Rape (rape (Brassica napus); Rate 250 g/ha, Postemergence) | Plant response rating, Rape (rape (Brassica napus); Rate 500 g/ha, Postemergence)
1: Plant response rating, Barnyardgrass [2, 12] | Plant response rating, Ducksalad [3, 12] | Plant response rating, Ducksalad [3, 13] | Plant response rating, Corn (corn (Zea mays); Rate 500 g/ha, Preemergence) | Plant response rating, Wheat ([6]; Rate 500 g/ha, Preemergence) | Plant response rating, Cocklebur ([7]; Rate 250 g/ha, Preemergence) | Plant response rating, Soybean (soybean (Glycine max); Rate 250 g/ha, Preemergence) | Plant response rating, Soybean (soybean (Glycine max); Rate 500 g/ha, Preemergence) | Plant response rating, Blackgrass ([10]; Rate 62 g/ha, Postemergence) | Blackgrass plant response rating ([10]; Rate 62 g/ha, Preemergence) | Plant response rating, Blackgrass ([10]; Rate 125 g/ha, Postemergence)
4: Plant response rating, Barnyardgrass [2, 15] | Plant response rating, Crabgrass ([5]; Rate 250 g/ha, Postemergence) | Rape plant response rating (rape (Brassica napus); Rate 125 g/ha, Preemergence) | Plant response rating, Rape (rape (Brassica napus); Rate 250 g/ha, Preemergence)
2: Plant response rating, Barnyardgrass [2, 13] | Plant response rating, Rice (rice (Oryza sativa); [13]) | Plant response rating, Rice (rice (Oryza sativa); [14]) | Plant response rating, Corn (corn (Zea mays); Rate 62 g/ha, Postemergence) | Plant response rating, Corn (corn (Zea mays); Rate 125 g/ha, Postemergence) | Plant response rating, Crabgrass ([5]; Rate 62 g/ha, Postemergence) | Plant response rating, Crabgrass ([5]; Rate 125 g/ha, Postemergence) | Plant response rating, Wheat ([6]; Rate 62 g/ha, Postemergence) | Blackgrass plant response rating ([10]; Rate 125 g/ha, Preemergence) | Plant response rating, Blackgrass ([10]; Rate 250 g/ha, Preemergence)
6: Plant response rating, S. Flatsedge [1, 12] | Sugarbeets plant response rating ([4]; Rate 62 g/ha, Preemergence) | Plant response rating, Sugarbeets ([4]; Rate 250 g/ha, Preemergence) | Plant response rating, Crabgrass ([5]; Rate 500 g/ha, Postemergence) | Plant response rating, Cocklebur ([7]; Rate 62 g/ha, Postemergence) | Plant response rating, Velvetleaf ([9]; Rate 62 g/ha, Postemergence) | Plant response rating, Soybean (soybean (Glycine max); Rate 62 g/ha, Postemergence) | Plant response rating, Soybean (soybean (Glycine max); Rate 125 g/ha, Postemergence) | Redroot pigweed plant response rating ([11]; Rate 125 g/ha, Preemergence)
10: Plant response rating, Sugarbeets ([4]; Rate 500 g/ha, Preemergence)
0: Plant response rating, Rice (rice (Oryza sativa); [12]) | Corn plant response rating (corn (Zea mays); Rate 62 g/ha, Preemergence) | Corn plant response rating (corn (Zea mays); Rate 125 g/ha, Preemergence) | Plant response rating, Corn (corn (Zea mays); Rate 250 g/ha, Preemergence) | Wheat plant response rating ([6]; Rate 62 g/ha, Preemergence) | Wheat plant response rating ([6]; Rate 125 g/ha, Preemergence) | Plant response rating, Wheat ([6]; Rate 250 g/ha, Preemergence) | Plant response rating, Nutsedge ([8]; Rate 62 g/ha, Postemergence) | Nutsedge plant response rating ([8]; Rate 62 g/ha, Preemergence) | Plant response rating, Nutsedge ([8]; Rate 125 g/ha, Postemergence) | Nutsedge plant response rating ([8]; Rate 125 g/ha, Preemergence) | Plant response rating, Nutsedge ([8]; Rate 250 g/ha, Postemergence) | Plant response rating, Nutsedge ([8]; Rate 250 g/ha, Preemergence) | Plant response rating, Nutsedge ([8]; Rate 500 g/ha, Preemergence) | Soybean plant response rating (soybean (Glycine max); Rate 62 g/ha, Preemergence) | Soybean plant response rating (soybean (Glycine max); Rate 125 g/ha, Preemergence)
3: Plant response rating, Barnyardgrass [2, 14] | Plant response rating, Ducksalad [3, 14] | Plant response rating, Rice (rice (Oryza sativa); [15]) | Plant response rating, Corn (corn (Zea mays); Rate 250 g/ha, Postemergence) | Plant response rating, Corn (corn (Zea mays); Rate 500 g/ha, Postemergence) | Plant response rating, Wheat ([6]; Rate 125 g/ha, Postemergence) | Plant response rating, Wheat ([6]; Rate 250 g/ha, Postemergence) | Plant response rating, Wheat ([6]; Rate 500 g/ha, Postemergence) | Plant response rating, Cocklebur ([7]; Rate 500 g/ha, Preemergence) | Plant response rating, Nutsedge ([8]; Rate 500 g/ha, Postemergence) | Plant response rating, Blackgrass ([10]; Rate 250 g/ha, Postemergence) | Plant response rating, Blackgrass ([10]; Rate 500 g/ha, Postemergence) | Plant response rating, Blackgrass ([10]; Rate 500 g/ha, Preemergence) | Redroot pigweed plant response rating ([11]; Rate 62 g/ha, Preemergence) | Rape plant response rating (rape (Brassica napus); Rate 62 g/ha, Preemergence)
5: Plant response rating, Ducksalad [3, 15] | Crabgrass plant response rating ([5]; Rate 62 g/ha, Preemergence) | Velvetleaf plant response rating ([9]; Rate 62 g/ha, Preemergence)
